According to patent US11912723B2, “KRAS modulators and uses thereof” (Quanta Therapeutics, Inc., priority 2022, dated 2024):

These compounds were tested against T1, GST-tagged KRAS G12D (2-169) (Homo sapiens, UniProt P01116, G12D) (assay: Nucleotide exchange assay (NEA), HTRF of SOS-mediated GTP-DY-647P1 binding). Details: 5 nM GST-KRAS G12D, 20 nM SOScat, 150 nM GTP; compound 1 h at RT.
T1 construct: GST-tagged KRAS^G12D (2-169, Reaction Biology, MSC-11-539); purchased Reaction Biology MSC-11-539 (KRAS G12D); MSC-11-502 (SOS1cat)
T1 sequence (P01116 2-169 isoform P01116-2 G12D): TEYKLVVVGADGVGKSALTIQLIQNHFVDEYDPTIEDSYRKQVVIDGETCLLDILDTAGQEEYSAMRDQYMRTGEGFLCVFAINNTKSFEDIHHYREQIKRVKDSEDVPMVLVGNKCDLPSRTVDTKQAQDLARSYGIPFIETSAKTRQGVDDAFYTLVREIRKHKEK
Format: biochemical
In short: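 After 1 h RT preincubation of compound with KRAS, SOS1cat (20 nM final) and fluorescent GTP analog (150 nM) were added to 5 nM KRAS; HTRF (anti-GST Tb donor) followed at RT for up to 90 min. % inhibition relative to DMSO and no-SOS1 blank, 4-parameter curve fit.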

| SMILES | IC50 [nM] |
| --- | --- |
| OC1CCCN(c2nc(OC[C@@]34CCCN3C[C@H](F)C4)nc3c2COC2(CCc4c(Cl)cccc42)C3)CC1 (mixture of isomers) [Compound 6, 1-[4′-chloro-2-[[rac-(2R,8S)-2-fluoro-1,2,3,5,6,7-hexahydropyrrolizin-8-yl]methoxy]spiro[5,8-dihydropyrano[4,3-d]pyrimidine-7,1′-indane]-4-yl]azepan-4-ol] | 1000 to 20000 |
| CN(C)C(=O)c1cc2n(n1)CCCN(c1nc(OC[C@@]34CCCN3C[C@H](F)C4)nc3c1COC1(CCCc4c(Cl)cc(O)cc41)C3)C2 (mixture of isomers) [Compound 43, 5-[5′-chloro-7′-hydroxy-2-[[rac-(2R,8S)-2-fluoro-1,2,3,5,6,7-hexahydropyrrolizin-8-yl]methoxy]spiro[5,8-dihydropyrano[4,3-d]pyrimidine-7,1′-tetralin]-4-yl]-N,N-dimethyl-4,6,7,8-tetrahydropyrazolo[1,5-a][1,4]diazepine-2-carboxamide] | 10 to 100 |
| C=C1CN2CCCC2(COc2nc3c(c(N4CCCn5nc(C(=O)N(C)C)c(Cl)c5C4)n2)CO[C@@]2(CCc4c(Cl)cccc42)C3)C1 (mixture of isomers) [Compound 54, 3-chloro-N,N-dimethyl-5-[rac-(7S)-4′-chloro-2-[(6-methylene-2,3,5,7-tetrahydro-1H-pyrrolizin-8-yl)methoxy]spiro[5,8-dihydropyrano[4,3-d]pyrimidine-7,1′-indane]-4-yl]-4,6,7,8-tetrahydropyrazolo[1,5-a][1,4]diazepine-2-carboxamide] | < 10 |
| Oc1ccc2c(c1)C1(CCC2)Cc2nc(OC[C@@]34CCCN3C[C@H](F)C4)nc(N3CCCCCC3)c2CO1 (single isomer, unassigned) [Compound 7] | 1000 to 20000 |
| Oc1ccc2c(c1)C1(CCC2)Cc2nc(OC[C@@]34CCCN3C[C@H](F)C4)nc(N3CCCCCC3)c2CO1 (single isomer, unassigned) [Compound 8] | 100 to 1000 |
| O=C1NC(=O)C2(CCCN(c3nc(OC[C@@]45CCCN4C[C@H](F)C5)nc4c3COC3(CCc5c(Cl)cccc53)C4)C2)N1 (single isomer, unassigned) [Compound 24A, (5*)-9-[(7*)-4′-chloro-2-[[(2R,8S)-2-fluoro-1,2,3,5,6,7-hexahydropyrrolizin-8-yl]methoxy]spiro[5,8-dihydropyrano[4,3-d]pyrimidine-7,1′-indane]-4-yl]-1,3,9-triazaspiro[4.5]decane-2,4-dione] | 10 to 100 |
| F[C@H]1CN2CCC[C@@]2(COc2nc3c(c(N4CCCCCC4)n2)COC2(CCc4c(Cl)cccc42)C3)C1 (stereo partly drawn) [Compound 1, 4′-(azepan-1-yl)-4-chloro-2′-(((2R,7aS)-2-fluorotetrahydro-1H-pyrrolizin-7a(5H)-yl)methoxy)-2,3,5′,8′-tetrahydrospiro[indene-1,7′-pyrano[4,3-d]pyrimidine]] | 1000 to 20000 |
| F[C@H]1CN2CCC[C@@]2(COc2nc3c(c(N4C[C@H]5CC[C@@H](C4)N5)n2)COC2(CCc4c(Cl)cccc42)C3)C1 (stereo partly drawn) [Compound 2, 4′-((1R,5S)-3,8-diazabicyclo[3.2.1]octan-3-yl)-4-chloro-2′-(((2R,7aS)-2-fluorotetrahydro-1H-pyrrolizin-7a(5H)-yl)methoxy)-2,3,5′,8′-tetrahydrospiro[indene-1,7′-pyrano[4,3-d]pyrimidine]] | 10 to 100 |
| OC1CCCN(c2nc(OC[C@@]34CCCN3C[C@H](F)C4)nc3c2COC2(CCCc4ccc(Br)cc42)C3)CC1 (stereo partly drawn) [Compound 4, 1-[7′-bromo-2-[[(2R,8S)-2-fluoro-1,2,3,5,6,7-hexahydropyrrolizin-8-yl]methoxy]spiro[5,8-dihydropyrano[4,3-d]pyrimidine-7,1′-tetralin]-4-yl]azepan-4-ol] | 1000 to 20000 |
| F[C@H]1CN2CCC[C@@]2(COc2nc3c(c(N4CCCCCC4)n2)COC2(CCCc4c(Br)cccc42)C3)C1 (stereo partly drawn) [Compound 5, 4-(azepan-1-yl)-5′-bromo-2-[[(2R,8S)-2-fluoro-1,2,3,5,6,7-hexahydropyrrolizin-8-yl]methoxy]spiro[5,8-dihydropyrano[4,3-d]pyrimidine-7,1′-tetralin]] | 1000 to 20000 |
| F[C@H]1CN2CCC[C@@]2(COc2nc3c(c(N4C[C@H]5CC[C@@H](C4)N5)n2)COC2(CCCc4c(Br)cccc42)C3)C1 (stereo partly drawn) [Compound 10, 5′-bromo-4-(3,8-diazabicyclo[3.2.1]octan-3-yl)-2-[[(2R,8S)-2-fluoro-1,2,3,5,6,7-hexahydropyrrolizin-8-yl]methoxy]spiro[5,8-dihydropyrano[4,3-d]pyrimidine-7,1′-tetralin]] | 10 to 100 |
| Oc1ccc2c(c1)C1(CCC2)Cc2nc(OC[C@@]34CCCN3C[C@H](F)C4)nc(N3CCCC(O)CC3)c2CO1 (stereo partly drawn) [Compound 14, 2-[[(2S,8R)-2-fluoro-1,2,3,5,6,7-hexahydropyrrolizin-8-yl]methoxy]-4-(4-hydroxyazepan-1-yl)spiro[5,8-dihydropyrano[4,3-d]pyrimidine-7,4′-tetralin]-6′-ol] | 1000 to 20000 |
| OC1CCCN(c2nc(OC[C@@]34CCCN3C[C@H](F)C4)nc3c2COC2(CCCc4c(Cl)cccc42)C3)CC1 (stereo partly drawn) [Compound 15, 1-[5′-chloro-2-[[(2R,8S)-2-fluoro-1,2,3,5,6,7-hexahydropyrrolizin-8-yl]methoxy]spiro[5,8-dihydropyrano[4,3-d]pyrimidine-7,1′-tetralin]-4-yl]azepan-4-ol] | 1000 to 20000 |
| N#CC1CCCN(c2nc(OC[C@@]34CCCN3C[C@H](F)C4)nc3c2COC2(CCc4c(Cl)cccc42)C3)CC1 (stereo partly drawn) [Compound 16, 1-(4-chloro-2′-(((2R,7aS)-2-fluorotetrahydro-1H-pyrrolizin-7a(5H)-yl)methoxy)-2,3,5′,8′-tetrahydrospiro[indene-1,7′-pyrano[4,3-d]pyrimidin]-4′-yl)azepane-4-carbonitrile] | 1000 to 20000 |
| OC1CCCN(c2nc(OC[C@@]34CCCN3C[C@H](F)C4)nc3c2COC2(CCCc4ccc(Cl)cc42)C3)CC1 (stereo partly drawn) [Compound 17, 1-(7-chloro-2′-(((2R,7aS)-2-fluorotetrahydro-1H-pyrrolizin-7a(5H)-yl)methoxy)-3,4,5′,8′-tetrahydro-2H-spiro[naphthalene-1,7′-pyrano[4,3-d]pyrimidin]-4′-yl)azepan-4-ol] | 1000 to 20000 |
| F[C@H]1CN2CCC[C@@]2(COc2nc3c(c(N4CCC=CCC4)n2)COC2(CCc4c(Cl)cccc42)C3)C1 (stereo partly drawn) [Compound 18, 4′-chloro-2-[[(2R,8S)-2-fluoro-1,2,3,5,6,7-hexahydropyrrolizin-8-yl]methoxy]-4-(2,3,6,7-tetrahydroazepin-1-yl)spiro[5,8-dihydropyrano[4,3-d]pyrimidine-7,1′-indane]] | > 20000 |
| CN(C)C(=O)c1cc2n(n1)CCCN(c1nc(OC[C@@]34CCCN3C[C@H](F)C4)nc3c1CO[C@]1(CCc4c(Cl)cccc41)C3)C2 [Compound 27B, 5-[(7R)-4′-chloro-2-[[(2R,8S)-2-fluoro-1,2,3,5,6,7-hexahydropyrrolizin-8-yl]methoxy]spiro[5,8-dihydropyrano[4,3-d]pyrimidine-7,1′-indane]-4-yl]-N,N-dimethyl-4,6,7,8-tetrahydropyrazolo[1,5-a][1,4]diazepine-2-carboxamide] | < 10 |
| CN1Cc2c(nc(OC[C@@]34CCCN3C[C@H](F)C4)nc2N2CCCCCC2)C[C@]12CCc1c(Cl)cccc12 [Compound 28A, (7S)-4-(azepan-1-yl)-4′-chloro-2-[[(2R,8S)-2-fluoro-1,2,3,5,6,7-hexahydropyrrolizin-8-yl]methoxy]-6-methyl-spiro[5,8-dihydropyrido[4,3-d]pyrimidine-7,1′-indane]] | 1000 to 20000 |
| N#CNC1CCCN(c2nc(OC[C@@]34CCCN3C[C@H](F)C4)nc3c2COC2(CCc4c(Cl)cccc42)C3)C1 (stereo partly drawn) [Compound 29, [1-[4′-chloro-2-[[(2R,8S)-2-fluoro-1,2,3,5,6,7-hexahydropyrrolizin-8-yl]methoxy]spiro[5,8-dihydropyrano[4,3-d]pyrimidine-7,1′-indane]-4-yl]-3-piperidyl]cyanamide] | 100 to 1000 |
| CN(C)C(=O)c1cc2n(n1)CCCN(c1nc(OC[C@@]34CCCN3C[C@H](F)C4)nc3c1CN(C)C1(CCCc4ccc(O)cc41)C3)C2 (stereo partly drawn) [Compound 39, 5-[7′-hydroxy-6-methyl-2-[[(2R,8S)-2-fluoro-1,2,3,5,6,7-hexahydropyrrolizin-8-yl]methoxy]spiro[5,8-dihydropyrido[4,3-d]pyrimidine-7,1′-tetralin]-4-yl]-N,N-dimethyl-4,6,7,8-tetrahydropyrazolo[1,5-a][1,4]diazepine-2-carboxamide] | < 10 |
| CN(C)C(=O)c1cc2n(n1)CCCN(c1nc(OC[C@@]34CCCN3C[C@H](F)C4)nc3c1CN(C)[C@@]1(CCCc4ccc(O)cc41)C3)C2 [Compound 39A, 5-[(7S)-2-[[(2R,8S)-2-fluoro-1,2,3,5,6,7-hexahydropyrrolizin-8-yl]methoxy]-7′-hydroxy-6-methyl-spiro[5,8-dihydropyrido[4,3-d]pyrimidine-7,1′-tetralin]-4-yl]-N,N-dimethyl-4,6,7,8-tetrahydropyrazolo[1,5-a][1,4]diazepine-2-carboxamide] | < 10 |
| Cc1c(C(=O)N(C)C)nn2c1CN(c1nc(OC[C@@]34CCCN3C[C@H](F)C4)nc3c1CO[C@@]1(CCc4c(Cl)cccc41)C3)CCC2 [Compound 42, 5-[(7S)-4′-chloro-2-[[(2R,8S)-2-fluoro-1,2,3,5,6,7-hexahydropyrrolizin-8-yl]methoxy]spiro[5,8-dihydropyrano[4,3-d]pyrimidine-7,1′-indane]-4-yl]-N,N,3-trimethyl-4,6,7,8-tetrahydropyrazolo[1,5-a][1,4]diazepine-2-carboxamide] | < 10 |
